Experiment [1] has as its system human γ-globin promoter (EGFP reporter) in K562 cells. Nature of the experiment: HbF activation assay on K562 (EGFP/RFP reporter model system for screening of inducers of fetal hemoglobin). The class given is cell-based. As to conditions: 60 hours. An excerpt:
In order to test several compounds, a model system was produced based on previous findings present in the literature. The K562 erythroid-like cell lines, isolated and characterized by Lozzio & Lozzio (Blood, 45(3), pp 321-334) from a patient with chronic myelogenous leukemia in blast crisis, have been extensively employed as a useful in vitro model to study the molecular mechanism(s) regulating the expression of embryonic and fetal human globin genes, as well as for screening of new differentiation-inducing compounds. A stable cell line where reporter genes encoding green EGFP and far-red fluorescent protein red-FP are placed under the control of the human γ-globin or β-globin promoters respectively was used (see Vadolas et al, Hum. Mol. Genet. 2004, 13, 2, 223-233 for details). The modified 3-cluster also contains the upstream regulatory region called LCR. This cell line grows in suspension at 37° C. and 5% CO2 in humidified atmosphere in the following medium: DMEM, 10% foetal bovine serum, glutamine and antibiotics (penicillin and streptomycin);
The assay procedures is as follows: • Single concentration compounds or serially diluted samples are transferred to an empty assay plates by a spotter (ATS-100, EDC Biosystems, USA) in order to have a final concentration of DMSO of 0.25% in 50 μL of cell culture. Source plats contains compounds dissolved in 100% DMSO • Black, transparent bottom, 384 wells, tissue culture treated plates are used as assay plates. • Assay plates containing spotted compounds are filled with a suspension of cell in the described assay medium. The final cell concentration is of 1000 cells per well. • Cells are incubated in humidified atmosphere, 37° C.-5% CO2, for 60 hours • Cell nuclei are stained by adding 10 ul (6 μM; 1 μM final) Hoechst 33342 (Life Technologies, USA) • The cell associated intensity is read by a plate based cytometer (ACUMEN explorer, TTP Labtech, UK) • The nuclei count is used to assess the cell proliferation/death and to normalize the total EGFP/RFP intensity. HbF Activation Assay in Human Cell Line K562
The compounds of the invention were tested in the HbF activation assay on K562, as model system for screening of potential inducers of fetal hemoglobin.

Experiment [2] addresses T1, HDAC1 (Homo sapiens, UniProt Q13547).
T1 construct: made in house
The experiment in a line: HDAC1 assay (Fluor-de-Lys fluorescent deacetylase assay). The class given is biochemical. As to conditions: read-out: hHDAC IC50. The procedure:
The HDAC1 assay is used to quantify the histone deacetylase (HDAC) activity. The assay is performed in 384 well microtiter plates by pre-incubating serial dilutions of the compounds with a fixed concentration of HeLa nuclear extract or purified HDAC1 and then adding an acetylated lysine-containing substrate/developer that fluoresces upon deacetylation.
Reagents of the HDAC Fluorescent Activity Assay are purchased from BioMol Research Laboratories (Plymouth Meeting, Pa.) and feature the Fluor-de-Lys™ Substrate/Developer System.
TSA Stock: TSA is provided as a 10 mM stock solution in 100% dimethylsulfoxide (DMSO). […] The final concentration in the assay is 20 uM.
3 uM [final] TSA to this solution increases its ability to stop the reaction.
HDAC1 Working Solution: The HDAC1 enzyme is diluted in assay buffer prior to each use from a fresh aliquot of enzyme. The final concentration in the assay is 1-2 nM.
Compounds: Test compounds are directly transferred from a 100% DMSO solution into assay plates by spotting nanoliters of solutions by an acoustic dispenser (ATS-100, EDC biosystems, US).
HeLa cells transiently transfected with pCDNA3-HDAC1-FLAG are grown to 80% confluence on 10 cm culture dishes in DMEM, 10% Fetal bovine serum supplemented with antibiotics and glutamine. Cells are washed with 10 ml cold PBS and scraped into 2 ml of PBS. Cells are centrifuged for 5 minutes at 800×g at 4° C., washed with 30 ml PBS and resuspended in 10 ml PBS, counted, re-centrifuged and frozen at −80° C.
The frozen cell pellet is re-suspended in 1 ml of hypotonic lysis buffer (LB: 20 mM Hepes pH7.9, 0.25 mM EDTA, 10% glycerol) containing COMPLETE protease inhibitor and incubated on ice for 15 minutes, followed by homogenization on a 2-ml DounceB homogenizer (25 strokes). 150 mM KCl and 0.5% NP-40 are added to the homogenate and the solution is sonicated twice for 30 seconds (output5/6, duty cycle 90) and incubated for 1 hour at 4° C. After a 30 minutes centrifugation at 12000 rpm and 4° C. the supernatant (soluble extract) is collected and protein concentration is determined using the BIORAD assay.
Anti-FLAG M2 affinity resin (Sigma) is washed three times with TBS and twice with LB. 10 μl of the LB-washed resin/mg of protein (2-3 ug of Flagged-HDAC1) are added to the soluble extract (1 mL) and incubated overnight at 4° C. with gentle mixing. The resin is then collected by centrifugation, washed once with LB, twice with LB+0.1% NP40 and twice with elution buffer (50 mM Hepes pH 7.4, 5% glycerol, 100 mM KCl, 0.01% Triton X-100).
The concentration of purified HDAC is determined by Western blot analysis.

The test system of experiment [3] is HDAC in Hela cells. The experiment in a line: HDAC Hela Cell Based assay.

The structures appear in SMILES notation.

The term EC50 denotes the concentration needed to bring the measured effect to its halfway point. Lower therefore signals an effect from little substance. A word on the IC50: it is the midpoint of a concentration-inhibition curve.

T1 sequence (Q13547 whole entry): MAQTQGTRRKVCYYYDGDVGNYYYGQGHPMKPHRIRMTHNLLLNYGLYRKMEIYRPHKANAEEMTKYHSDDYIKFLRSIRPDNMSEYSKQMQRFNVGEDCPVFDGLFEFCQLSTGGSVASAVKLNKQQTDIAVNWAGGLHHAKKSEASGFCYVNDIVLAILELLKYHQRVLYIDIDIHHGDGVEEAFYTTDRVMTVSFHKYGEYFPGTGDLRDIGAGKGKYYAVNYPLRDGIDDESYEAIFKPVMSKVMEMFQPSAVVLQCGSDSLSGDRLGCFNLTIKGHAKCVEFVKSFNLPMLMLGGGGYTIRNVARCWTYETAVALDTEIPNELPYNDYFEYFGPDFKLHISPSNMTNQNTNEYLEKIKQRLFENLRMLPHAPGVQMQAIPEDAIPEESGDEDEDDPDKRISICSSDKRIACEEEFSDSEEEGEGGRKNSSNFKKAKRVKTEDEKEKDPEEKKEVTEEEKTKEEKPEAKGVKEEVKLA

`CCC(=O)CCCCC[C@H](NC(=O)C(C)n1nc(C)cc1C)c1ncc(-c2cc3ccccc3nc2OC)o1` (stereo partly drawn) [Compound 95, 2-(3,5-dimethyl-1H-pyrazol-1-yl)-N-((S)-1-(5-(2-methoxyquinolin-3-yl)oxazol-2-yl)-7-oxononyl)propanamide] registered an EC50 in experiment [1] above 1000 nM. The IC50 in experiment [2] is below 100 nM; in experiment [3], 100 to 1000 nM.

`CCC(=O)CCCCC[C@H](NC(=O)C1CN(C)C1)c1ncc(-c2ccccc2)o1` [Compound 32, (S)-1-methyl-N-(7-oxo-1-(5-phenyloxazol-2-yl)nonyl)azetidine-3-carboxamide] came in with an EC50 in experiment [1] above 1000 nM. Moreover, the IC50 in experiment [2] is below 100 nM; in experiment [3], above 1000 nM.

On to `CCC(=O)CCCCC[C@H](NC(=O)C1(N(C)C)CCCC1)c1ncc(-c2cc3ccccc3nc2OC)o1` [Compound 105, (S)-1-(dimethylamino)-N-(1-(5-(2-methoxyquinolin-3-yl)oxazol-2-yl)-7-oxononyl)cyclopentanecarboxamide], for which the EC50 in experiment [1] is 100 to 1000 nM. The IC50 in experiment [2] and in experiment [3] was below 100 nM in each case.

In turn, `CCC(=O)CCCCC[C@H](NC(=O)C1CCN(C)CC1)c1ncc(-c2cccc3c2OCCO3)o1` [Compound 5] had an EC50 in experiment [1] above 1000 nM. In addition, the IC50 in experiment [2] is below 100 nM; in experiment [3], above 1000 nM.

Compound `CCC(=O)CCCCC[C@H](NC(=O)c1sc(C)nc1C)c1ncc(-c2cc3ccccc3nc2OC)o1` [Compound 83, (S)-N-(1-(5-(2-methoxyquinolin-3-yl)oxazol-2-yl)-7-oxononyl)-2,4-dimethylthiazole-5-carboxamide] displayed an EC50 in experiment [1] above 1000 nM. Further, the IC50 in experiment [2] is below 100 nM; in experiment [3], 100 to 1000 nM.

`CCC(=O)CCCCC[C@H](NC(=O)C(C)(C)N(C)C)c1ncc(-c2cc3ccccc3nc2OC)o1` [Compound 35, (S)-2-(dimethylamino)-N-(1-(5-(2-methoxyquinolin-3-yl)oxazol-2-yl)-7-oxononyl)-2-methylpropanamide] showed an EC50 in experiment [1] of 100 to 1000 nM. The IC50 in experiment [2] and in experiment [3] was below 100 nM in each case.

Take `CCC(=O)CCCCC[C@H](NC(=O)c1ccns1)c1ncc(-c2cc3ccccc3nc2OC)o1` [Compound 100, (S)-N-(1-(5-(2-methoxyquinolin-3-yl)oxazol-2-yl)-7-oxononyl)isothiazole-5-carboxamide]: in experiment [1], the EC50 was in the range of 100 to 1000 nM. The half-inhibitory concentration (IC50) was below 100 nM in experiment [2] and 100 to 1000 nM in experiment [3].

`CCC(=O)CCCCC[C@H](NC(=O)c1ccnc(Cl)c1)c1ncc(-c2ccccc2)o1` [Compound 14, (S)-2-chloro-N-(7-oxo-1-(5-phenyloxazol-2-yl)nonyl)isonicotinamide] yielded an EC50 in experiment [1] above 1000 nM. The values for the IC50 in experiment [2] and in experiment [3] were 100 to 1000 nM and above 1000 nM, respectively.

Take `CCC(=O)CCCCC[C@H](NC(=O)C1CN(C)C1)c1nnc(-c2cc3ccccc3n(C)c2=O)o1` [Compound 71, (S)-1-methyl-N-(1-(5-(1-methyl-2-oxo-1,2-dihydroquinolin-3-yl)-1,3,4-oxadiazol-2-yl)-7-oxononyl)azetidine-3-carboxamide]: the EC50 in experiment [1] is above 1000 nM. Moreover, the IC50 is below 100 nM in experiment [2] and 100 to 1000 nM in experiment [3].

`CCC(=O)CCCCC[C@H](NC(=O)c1csnn1)c1ncc(-c2cc3ccccc3nc2OC)o1` [Compound 99, (S)-N-(1-(5-(2-methoxyquinolin-3-yl)oxazol-2-yl)-7-oxononyl)-1,2,3-thiadiazole-4-carboxamide] yielded an EC50 in experiment [1] above 1000 nM. For the same compound, the IC50 in experiment [2] is below 100 nM; in experiment [3], 100 to 1000 nM.

In the case of `CCC(=O)CCCCC[C@H](NC(=O)c1cc(CN2CCCCC2)ns1)c1ncc(-c2cc3ccccc3nc2OC)o1` [Compound 94, (S)-N-(1-(5-(2-methoxyquinolin-3-yl)oxazol-2-yl)-7-oxononyl)-3-(piperidin-1-ylmethyl)isothiazole-5-carboxamide], the EC50 in experiment [1] is above 1000 nM. Also, the IC50 in experiment [2] is below 100 nM; in experiment [3], 100 to 1000 nM.

In experiment [1], `CCC(=O)CCCCC[C@H](NC(=O)c1cccnc1)c1ncc(-c2cc3ccccc3nc2OC)o1` [Compound 91, (S)-N-(1-(5-(2-methoxyquinolin-3-yl)oxazol-2-yl)-7-oxononyl)nicotinamide] returned an EC50 of 100 to 1000 nM. Further, the values for the IC50 in experiment [2] and in experiment [3] were below 100 nM and 100 to 1000 nM, respectively.

Turning to `CCC(=O)CCCCC[C@H](NC(=O)C1(F)CCN(C)CC1)c1ncc(-c2cc3ccccc3nc2OC)o1` [Compound 68, (S)-4-fluoro-N-(1-(5-(2-methoxyquinolin-3-yl)oxazol-2-yl)-7-oxononyl)-1-methylpiperidine-4-carboxamide], the EC50 in experiment [1] was above 1000 nM. For the same compound, the IC50 in experiment [2] was below 100 nM; in experiment [3], 100 to 1000 nM.

`CCC(=O)CCCCC[C@H](NC(=O)[C@@H]1C[C@H](F)CN1C)c1ncc(-c2cc3ccccc3nc2OC)o1` [Compound 66, (2S,4S)-4-fluoro-N-((S)-1-(5-(2-methoxyquinolin-3-yl)oxazol-2-yl)-7-oxononyl)-1-methylpyrrolidine-2-carboxamide]: in experiment [1], the EC50 was above 1000 nM. For the same compound, the IC50 in experiment [2] is below 100 nM; in experiment [3] it was 100 to 1000 nM.

The compound `CCC(=O)CCCCC[C@H](NC(=O)CCn1c(CC)nc2ccccc21)c1ncc(-c2ccccc2)o1` [Compound 26, (S)-3-(2-ethyl-1H-benzo[d]imidazol-1-yl)-N-(7-oxo-1-(5-phenyloxazol-2-yl)nonyl)propanamide] came in with an EC50 in experiment [1] above 1000 nM. For the same compound, the IC50 is 100 to 1000 nM in experiment [2] and above 1000 nM in experiment [3].

In experiment [1], `CCC(=O)CCCCC[C@H](NC(=O)CCc1cnn(C)c1)c1ncc(-c2cc3ccccc3nc2OC)o1` [Compound 93, (S)-N-(1-(5-(2-methoxyquinolin-3-yl)oxazol-2-yl)-7-oxononyl)-3-(1-methyl-1H-pyrazol-4-yl)propanamide] yielded an EC50 of 100 to 1000 nM. Also, the values for the IC50 in experiment [2] and in experiment [3] were below 100 nM and 100 to 1000 nM, respectively.

As to `CCC(=O)CCCCC[C@H](NC(=O)C1CN(C)C1)c1ncc(-c2ccc(-n3cccn3)cc2)o1` [Compound 61, (S)-N-(1-(5-(4-(1H-pyrazol-1-yl)phenyl)oxazol-2-yl)-7-oxononyl)-1-methylazetidine-3-carboxamide], in experiment [1], the EC50 was above 1000 nM. Also, the IC50 was below 100 nM in experiment [2] and 100 to 1000 nM in experiment [3].

Regarding `CCC(=O)CCCCC[C@H](NC(=O)CCn1c(CC)nc2ccccc21)c1ncc(-c2cc3ccccc3nc2OC)o1` [Compound 29, (S)-3-(2-ethyl-1H-benzo[d]imidazol-1-yl)-N-(1-(5-(2-methoxyquinolin-3-yl)oxazol-2-yl)-7-oxononyl)propanamide], the 50% effective concentration (EC50) in experiment [1] is 100 to 1000 nM. Besides, the IC50 in experiment [2] and in experiment [3] was below 100 nM each time.

For the origin of these results see patent publication US9371295B2, “Compounds for use in the treatment of disorders that are ameliorated by inhibition of HDAC” (IRBM—Science Park S.p.A., priority 2012, dated 2016).
